Assay results taken from patent publication US11717508B2, “Compounds, compositions, and methods for inhibiting bacterial growth” (priority 2016, dated 2023).
Where two headings read alike, the source gives them in different places.

How the values were obtained:
TAG accumulation = format: cell-based, Mycobacterium tuberculosis
Mtb CDC1551 = experiment: microbe, parasite or virus in culture; details: Mycobacterium tuberculosis, CDC1551, read-out: reduction of viability relative to DMSO treated control

In the case of `O=C(Nc1cccc(O)c1)c1cccc(NC(=O)c2cccs2)c1` [HC103A, N-[3-[(3 hydroxyphenyl)carbamoyl]phenyl]thiophene-2-carboxamide], the “reduction in TAG accumulation” value (TAG accumulation) is reported as 56% and the inhibition at 10 µM (Mtb CDC1551) is reported as ~50%.
In the case of `C[C@@H]1CC[C@H]2[C@@H](C)C(=O)O[C@@H]3O[C@]4(C)CC[C@@H]1[C@]32OO4` [HC101A, artemisinin, reference compound], the “reduction in TAG accumulation” value (TAG accumulation; CDC1551, 40 μM, 6 days) is reported as 74% and the inhibition at 10 µM (Mtb CDC1551) is reported as ~50%.
For `C[C@@H]1CC(C)(C)C[C@]2(C1)NC(=O)NC2=O` (racemic) [HC102A, 7,7,9-trimethyl-1,3-diazaspiro[4.5]decane-2,4-dione], the “reduction in TAG accumulation” value (TAG accumulation; CDC1551, 40 μM, 6 days) was 67% and the inhibition at 10 µM (Mtb CDC1551) was ~50%.
